{"source": "patent EP1140895B1", "about": "“THIOPYRAN COMPOUNDS AS INHIBITORS OF MMP” (FUJISAWA PHARMACEUTICAL CO., LTD., priority 1999, dated 2000)", "molecular_target": "T1, human MMP-13 (Homo sapiens, UniProt P45452)", "T1 construct": "truncated form of human recombinant MMP-13; purchased Chondrex, USA", "test": "Inhibitory activity of human MMP-13", "type": "biochemical", "details": "commercial kit, truncated form of human recombinant MMP-13, fluorogenic peptide substrate, 1 hour at 35°C", "experimental": "The inhibitory potential of test compounds against human MMP-13 were assayed by using commercial kit (Chondrex, USA) contained truncated form of human recombinant MMP-13 and fluorogenic peptide substrate. Activity of human MMP-13 was determined by monitoring the degradation of fluorogenic peptide substrate after incubation for 1 hour at 35°C and estimated by measuring the fluorescence intensity of degraded peptide substrate at 495 nm (excitation) and 520 nm (emission).\nInhibitory activity of human MMP-13 as mentioned above."}
{"smiles": "O=C(CC1(c2ccc(Oc3ccc(Cl)cc3)cc2)CCCCS1(=O)=O)NO", "note": "(single isomer, unassigned) [Example 15, (R or S)-(-)-2-[4-(4-chlorophenoxy)phenyl]-3,4,5,6-tetrahydro-N-hydroxy-2H-thiopyran-2-acetamide 1,1-dioxide]", "values": [{"measurement": "IC50", "result": 2.2, "unit": "nM"}]}
